Experimental data published in the NIST ThermoML archive (doi:10.1016/j.fluid.2007.09.001).
± gives the expanded uncertainty stated by the source.

Tests used:
[1] = Liquid; Ebulliometric method (Recirculating still)
[2] = refractive index (Na D-line) (dimensionless); conditions: 293.15 K; 101.33 kPa; Liquid; Standard Abbe refractometry

SMILES	Normal boiling temperature [1] [°C]	refractive index [2]
CCOC(C)=O [ethyl acetate]	77.09 ± 0.5	1.3701 ± 0.0021
CCCCOC(C)=O [butyl ethanoate]	125.96 ± 0.5	1.3941 ± 0.0021
CCCCO [butan-1-ol]	116.97 ± 0.5	1.3993 ± 0.0021
CC(O)C(C)O (stereo not drawn) [2,3-butanediol]	181.06 ± 0.5	1.4375 ± 0.0021
